From ChEMBL document CHEMBL1201862, “PubChem BioAssay data set” (2004)
Activity calls are given as the source filed them.

What was measured:
[1] = viability of PTEN-deleted HCT116 cells – cell-based, HCT116 PTEN knockout, dose response (AID 1047); type: functional;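 further: HCT116 colon tumor cells with PTEN knocked out; cells exposed to compound for 60 hours before readout; potency for loss of cell viability measured by luminescence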
[2] = viability of HCT116 lacking mutant beta-catenin – cell-based, human colon tumor, dose response (AID 1045); type: functional;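 further: HCT116 colon tumor cells with beta catenin knocked out; cells exposed to compound for 60 hours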
[3] = THP-1 cell cytotoxicity, dose response, cytotoxicity control for non-replicating M. tuberculosis project (AID 489025); type: functional
[4] = Luminescence Cell-Based Dose Retest to Confirm Inhibitors of Cancer Stem Cells. [Related pubchem assays (depositor defined):AID2717, AID2721]; type: functional; conditions: Homo sapiens
cells = type: functional
[5] = blockers of HIV-1 envelope-mediated cell-cell fusion – cherry-pick, dose response (AID 652057); type: functional, cell-based
[6] = blockers of HIV-1 ZM109 envelope-driven cell-cell fusion – HeLa effector, CEM target cells, luciferase, cherry-pick, dose response (AID 652058); type: functional, cell-based;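 further: luciferase signal from HIV-1 Env mediated cell-cell fusion of effector and target cells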
[7] = HIV-1 AD8 envelope cell-cell fusion blockers – cherry-pick, dose response (AID 652062); type: functional, cell-based;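 further: luciferase signal from cell-cell fusion driven by HIV-1 clade B AD8 Env; potency is for inhibitors of fusion seen as a drop in luminescence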
Caspase-3 = target: T1, Caspase-3 (Homo sapiens, UniProt P42574); type: functional;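 further: Dose-response selectivity test against caspase-3 for candidate inhibitors of sentrin-specific proteases (SENPs)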
T1 sequence (P42574 whole entry): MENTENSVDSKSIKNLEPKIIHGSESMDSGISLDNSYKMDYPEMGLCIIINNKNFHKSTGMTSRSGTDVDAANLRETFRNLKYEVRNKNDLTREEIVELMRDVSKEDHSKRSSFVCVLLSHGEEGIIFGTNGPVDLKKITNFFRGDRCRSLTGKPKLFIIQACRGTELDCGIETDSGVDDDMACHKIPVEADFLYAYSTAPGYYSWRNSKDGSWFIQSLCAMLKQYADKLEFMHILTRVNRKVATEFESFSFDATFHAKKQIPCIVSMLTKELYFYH

[8] = target: T2, Sentrin-specific protease 7 (Homo sapiens, UniProt Q9BQF6); type: functional;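 further: Luminescence-based dose-response confirmation of ultra-high-throughput screening hits, measuring inhibition of SENP7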
T2 sequence (Q9BQF6 whole entry): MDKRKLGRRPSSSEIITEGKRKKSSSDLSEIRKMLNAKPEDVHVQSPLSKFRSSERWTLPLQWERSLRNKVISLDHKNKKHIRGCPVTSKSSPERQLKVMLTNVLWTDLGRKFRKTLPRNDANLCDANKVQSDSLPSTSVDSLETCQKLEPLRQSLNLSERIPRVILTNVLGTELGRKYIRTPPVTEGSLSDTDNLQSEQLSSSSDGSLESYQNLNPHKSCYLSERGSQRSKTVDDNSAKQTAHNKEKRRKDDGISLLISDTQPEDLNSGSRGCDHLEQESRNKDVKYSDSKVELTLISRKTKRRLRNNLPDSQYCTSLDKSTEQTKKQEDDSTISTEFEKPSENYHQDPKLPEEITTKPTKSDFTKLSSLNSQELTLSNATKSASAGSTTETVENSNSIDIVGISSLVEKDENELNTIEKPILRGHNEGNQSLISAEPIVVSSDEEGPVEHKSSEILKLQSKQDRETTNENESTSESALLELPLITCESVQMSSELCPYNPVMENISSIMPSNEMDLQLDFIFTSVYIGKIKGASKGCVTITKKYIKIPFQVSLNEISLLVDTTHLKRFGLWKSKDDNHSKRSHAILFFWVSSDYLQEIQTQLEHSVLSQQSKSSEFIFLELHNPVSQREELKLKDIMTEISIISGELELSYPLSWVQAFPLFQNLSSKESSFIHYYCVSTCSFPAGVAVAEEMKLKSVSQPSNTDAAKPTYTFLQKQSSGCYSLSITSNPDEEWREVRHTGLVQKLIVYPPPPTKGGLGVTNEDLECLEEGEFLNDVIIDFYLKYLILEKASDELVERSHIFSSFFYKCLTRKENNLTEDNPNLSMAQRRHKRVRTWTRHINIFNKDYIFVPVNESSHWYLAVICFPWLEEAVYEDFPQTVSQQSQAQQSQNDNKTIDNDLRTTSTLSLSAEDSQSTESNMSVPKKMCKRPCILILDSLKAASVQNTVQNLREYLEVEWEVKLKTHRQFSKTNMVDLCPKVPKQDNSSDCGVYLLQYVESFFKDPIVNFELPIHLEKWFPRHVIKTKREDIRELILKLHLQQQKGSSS

[9] = target: T3, Sentrin-specific protease 6 (Homo sapiens, UniProt Q9GZR1); type: functional;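 further: Luminescence-based dose-response confirmatory assay of SENP6 inhibition, following up an ultra-high-throughput screen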
T3 sequence (Q9GZR1 whole entry): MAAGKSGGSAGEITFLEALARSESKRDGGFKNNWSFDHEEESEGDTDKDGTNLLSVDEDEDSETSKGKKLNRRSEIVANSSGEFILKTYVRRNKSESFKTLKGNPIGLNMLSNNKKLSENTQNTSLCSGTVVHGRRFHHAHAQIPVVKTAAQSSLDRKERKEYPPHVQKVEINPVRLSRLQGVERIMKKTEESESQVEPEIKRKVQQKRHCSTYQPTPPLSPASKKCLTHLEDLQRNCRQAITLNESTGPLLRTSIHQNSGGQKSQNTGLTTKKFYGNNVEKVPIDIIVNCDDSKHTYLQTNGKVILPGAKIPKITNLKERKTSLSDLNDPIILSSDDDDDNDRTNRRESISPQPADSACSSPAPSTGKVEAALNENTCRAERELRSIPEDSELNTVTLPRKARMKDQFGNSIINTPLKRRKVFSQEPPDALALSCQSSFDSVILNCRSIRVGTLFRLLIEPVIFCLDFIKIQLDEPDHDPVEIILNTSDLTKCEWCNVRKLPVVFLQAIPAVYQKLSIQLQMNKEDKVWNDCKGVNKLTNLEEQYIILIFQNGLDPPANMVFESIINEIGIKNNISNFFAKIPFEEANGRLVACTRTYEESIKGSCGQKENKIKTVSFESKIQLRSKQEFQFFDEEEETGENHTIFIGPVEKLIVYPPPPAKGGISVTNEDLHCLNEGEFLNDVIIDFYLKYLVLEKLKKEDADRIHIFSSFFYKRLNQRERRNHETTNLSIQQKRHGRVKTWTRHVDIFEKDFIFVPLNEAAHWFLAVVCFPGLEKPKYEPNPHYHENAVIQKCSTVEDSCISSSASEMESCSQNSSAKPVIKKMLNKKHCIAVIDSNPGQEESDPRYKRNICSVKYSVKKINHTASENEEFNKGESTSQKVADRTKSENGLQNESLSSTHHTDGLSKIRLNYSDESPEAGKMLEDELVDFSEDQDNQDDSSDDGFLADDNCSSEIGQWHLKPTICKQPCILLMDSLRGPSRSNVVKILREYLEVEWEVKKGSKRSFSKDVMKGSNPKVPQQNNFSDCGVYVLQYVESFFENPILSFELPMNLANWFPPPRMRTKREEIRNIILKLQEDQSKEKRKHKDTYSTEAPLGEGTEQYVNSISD

[10] = target: T4, Sentrin-specific protease 8 (Homo sapiens, UniProt Q96LD8); type: functional;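 further: luminescence read-out of SENP8 inhibition, dose-response confirmation following an ultra-high-throughput screen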
T4 sequence (Q96LD8 whole entry): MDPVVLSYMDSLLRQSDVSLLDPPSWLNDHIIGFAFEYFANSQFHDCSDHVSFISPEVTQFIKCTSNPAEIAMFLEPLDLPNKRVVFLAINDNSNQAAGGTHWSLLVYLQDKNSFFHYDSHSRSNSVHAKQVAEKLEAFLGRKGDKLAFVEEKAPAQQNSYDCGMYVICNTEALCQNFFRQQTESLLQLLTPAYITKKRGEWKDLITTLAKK

[11] = intracellular Trypanosoma cruzi inhibitors in host cells – cell-based, plate reader, cherry-pick samples, set 3, dose response (AID 651818); type: functional;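 further: compounds incubated with infected cells for about four days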
[12] = target: Voltage-dependent T-type calcium channel subunit alpha-1H (Homo sapiens, UniProt O95180); type: functional;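 further: channel activity triggered by adding a high calcium stimulation buffer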
[13] = target: T5, Ubiquitin-conjugating enzyme E2 N (Homo sapiens, UniProt P61088); type: functional;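 further: Dose-response confirmation in a TR-FRET assay detecting UBC13-driven polyubiquitin chain formation, inhibition measured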
T5 sequence (P61088 whole entry): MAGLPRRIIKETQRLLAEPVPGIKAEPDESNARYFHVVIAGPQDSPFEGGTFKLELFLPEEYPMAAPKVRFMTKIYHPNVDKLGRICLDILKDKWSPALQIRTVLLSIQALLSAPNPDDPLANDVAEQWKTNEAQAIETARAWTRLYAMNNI

Nonstructural protein 1 = Nonstructural protein 1 (Influenza A virus, UniProt Q194T2); type: functional, Influenza A virus (A/California/07/2009(H1N1))
[14] = target: T6, Rac GTPase-activating protein 1 (Homo sapiens, UniProt Q9H0H5); assay: blockers of MgcRacGAP-driven Rac1 GTP hydrolysis – biochemical, ADP Hunter fluorescence, primary and confirmatory, confirmation (AID 624330); type: functional
T6 sequence (Q9H0H5 whole entry): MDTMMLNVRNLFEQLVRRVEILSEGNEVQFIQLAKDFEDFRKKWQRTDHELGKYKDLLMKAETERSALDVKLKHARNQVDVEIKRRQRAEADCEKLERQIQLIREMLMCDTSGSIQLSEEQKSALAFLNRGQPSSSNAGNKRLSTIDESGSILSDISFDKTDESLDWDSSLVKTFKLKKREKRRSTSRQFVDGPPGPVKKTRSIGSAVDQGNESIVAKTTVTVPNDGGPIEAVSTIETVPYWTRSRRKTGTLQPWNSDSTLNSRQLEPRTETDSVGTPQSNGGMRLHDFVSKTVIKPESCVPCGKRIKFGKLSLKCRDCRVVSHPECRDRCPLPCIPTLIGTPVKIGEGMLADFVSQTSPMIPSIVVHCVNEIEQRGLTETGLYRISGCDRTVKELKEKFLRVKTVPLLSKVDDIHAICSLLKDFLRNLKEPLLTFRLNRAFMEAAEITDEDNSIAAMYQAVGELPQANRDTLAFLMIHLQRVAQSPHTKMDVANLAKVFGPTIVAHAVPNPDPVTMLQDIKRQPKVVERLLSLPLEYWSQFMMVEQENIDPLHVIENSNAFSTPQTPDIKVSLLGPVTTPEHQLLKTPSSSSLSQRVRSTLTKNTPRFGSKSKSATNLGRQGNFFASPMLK

Voltage-dependent T-type calcium channel subunit alpha-1H, sequence (O95180 whole entry): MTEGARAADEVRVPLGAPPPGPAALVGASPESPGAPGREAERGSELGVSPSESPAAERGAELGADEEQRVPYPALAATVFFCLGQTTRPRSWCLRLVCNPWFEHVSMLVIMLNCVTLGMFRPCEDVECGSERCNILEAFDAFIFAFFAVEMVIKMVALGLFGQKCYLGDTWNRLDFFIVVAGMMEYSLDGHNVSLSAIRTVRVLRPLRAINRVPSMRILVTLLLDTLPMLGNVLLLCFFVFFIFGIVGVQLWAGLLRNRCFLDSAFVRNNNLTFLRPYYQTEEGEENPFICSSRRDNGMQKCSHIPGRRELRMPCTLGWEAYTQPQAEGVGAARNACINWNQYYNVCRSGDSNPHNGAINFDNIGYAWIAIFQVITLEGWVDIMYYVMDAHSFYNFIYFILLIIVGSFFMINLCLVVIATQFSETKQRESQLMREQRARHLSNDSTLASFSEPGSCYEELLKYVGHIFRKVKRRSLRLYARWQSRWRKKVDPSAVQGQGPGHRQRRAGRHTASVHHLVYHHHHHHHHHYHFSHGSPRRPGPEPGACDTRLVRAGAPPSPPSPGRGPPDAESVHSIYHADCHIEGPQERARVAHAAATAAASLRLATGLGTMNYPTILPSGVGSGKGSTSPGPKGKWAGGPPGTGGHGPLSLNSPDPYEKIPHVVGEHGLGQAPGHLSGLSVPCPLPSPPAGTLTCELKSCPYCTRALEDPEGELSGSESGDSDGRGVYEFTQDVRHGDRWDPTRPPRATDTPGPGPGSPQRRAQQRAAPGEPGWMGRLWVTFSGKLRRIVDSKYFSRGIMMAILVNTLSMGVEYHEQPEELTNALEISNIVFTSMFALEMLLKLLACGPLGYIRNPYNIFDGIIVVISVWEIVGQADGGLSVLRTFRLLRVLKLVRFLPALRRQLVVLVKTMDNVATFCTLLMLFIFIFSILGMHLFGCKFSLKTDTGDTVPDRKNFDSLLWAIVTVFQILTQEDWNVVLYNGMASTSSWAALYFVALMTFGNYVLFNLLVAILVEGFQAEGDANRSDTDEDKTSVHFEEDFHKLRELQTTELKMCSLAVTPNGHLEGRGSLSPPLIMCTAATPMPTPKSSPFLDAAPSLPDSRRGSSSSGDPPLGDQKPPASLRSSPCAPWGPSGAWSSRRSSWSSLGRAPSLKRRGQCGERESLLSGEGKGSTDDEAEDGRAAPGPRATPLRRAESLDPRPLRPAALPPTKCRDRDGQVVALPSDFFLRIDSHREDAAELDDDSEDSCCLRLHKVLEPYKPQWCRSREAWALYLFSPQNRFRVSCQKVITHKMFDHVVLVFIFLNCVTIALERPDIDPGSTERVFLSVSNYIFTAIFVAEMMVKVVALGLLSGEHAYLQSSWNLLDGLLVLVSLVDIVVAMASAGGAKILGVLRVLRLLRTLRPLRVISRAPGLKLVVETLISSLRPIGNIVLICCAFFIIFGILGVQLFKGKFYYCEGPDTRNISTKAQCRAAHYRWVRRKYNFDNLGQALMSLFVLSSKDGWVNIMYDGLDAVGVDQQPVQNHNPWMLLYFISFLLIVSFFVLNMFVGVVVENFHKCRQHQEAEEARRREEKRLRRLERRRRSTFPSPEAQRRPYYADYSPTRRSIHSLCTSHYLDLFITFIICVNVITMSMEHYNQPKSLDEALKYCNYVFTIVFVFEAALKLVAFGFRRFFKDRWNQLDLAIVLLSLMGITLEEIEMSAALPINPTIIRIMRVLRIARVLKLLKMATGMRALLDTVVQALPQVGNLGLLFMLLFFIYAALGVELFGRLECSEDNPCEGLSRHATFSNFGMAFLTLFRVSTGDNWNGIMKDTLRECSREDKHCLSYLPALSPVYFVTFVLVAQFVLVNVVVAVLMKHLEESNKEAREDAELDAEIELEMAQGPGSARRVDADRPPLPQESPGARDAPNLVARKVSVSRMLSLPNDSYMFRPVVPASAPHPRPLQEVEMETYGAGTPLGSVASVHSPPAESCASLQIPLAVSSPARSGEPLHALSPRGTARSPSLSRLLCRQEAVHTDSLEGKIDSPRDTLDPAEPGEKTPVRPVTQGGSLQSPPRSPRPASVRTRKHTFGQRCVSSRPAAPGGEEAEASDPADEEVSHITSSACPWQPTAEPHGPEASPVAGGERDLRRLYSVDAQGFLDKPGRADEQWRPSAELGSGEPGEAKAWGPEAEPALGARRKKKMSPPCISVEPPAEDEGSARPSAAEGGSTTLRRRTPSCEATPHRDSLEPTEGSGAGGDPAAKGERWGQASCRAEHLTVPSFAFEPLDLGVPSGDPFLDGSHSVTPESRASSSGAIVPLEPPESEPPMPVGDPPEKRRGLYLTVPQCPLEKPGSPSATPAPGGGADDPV
Nonstructural protein 1, sequence (Q194T2 whole entry): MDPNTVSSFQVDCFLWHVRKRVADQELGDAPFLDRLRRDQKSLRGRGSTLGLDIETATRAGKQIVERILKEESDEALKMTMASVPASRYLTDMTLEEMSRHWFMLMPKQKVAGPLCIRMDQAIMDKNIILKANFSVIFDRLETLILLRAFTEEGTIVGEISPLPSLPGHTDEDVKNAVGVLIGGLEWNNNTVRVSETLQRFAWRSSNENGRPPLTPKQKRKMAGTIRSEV

| SMILES | IC50 (Caspase-3) | IC50 [8] | IC50 [9] | IC50 [10] | AC50 [11] | other results |
| --- | --- | --- | --- | --- | --- | --- |
| CCOC(=O)c1c(NC(=O)C2COc3ccccc3O2)sc2c1CC(C)(C)NC2(C)C (configuration not stated) | – | – | – | – | – | EC50 [1]: 10.6 µM (active); EC50 [2]: 10.3 µM (active); CC50 [3]: 25.3 µM (active); AC50 [4]: 8.55 µM (active); IC50 (cells): 36.2 µM (active) |
| O=C(NNS(=O)(=O)c1ccc(F)cc1F)C1Cc2c(ccc3ccccc23)O1 (configuration not stated) | – | – | – | – | – | AC50 [5]: 8.04 µM (active); AC50 [6]: 37.5 µM (active); AC50 [7]: 24.2 µM (active) |
| O=[N+]([O-])c1nn(-c2ccc3c(c2)OCCO3)[n+]([O-])c1NCc1ccccc1Cl | > 100 µM (inactive) | 3.36 µM (active) | > 100 µM (inactive) | > 100 µM (inactive) | – | – |
| Clc1ccc(OCc2nc(-c3ccncc3)no2)c(Cl)c1 | 38.8 µM (active) | 9.12 µM (active) | 28.8 µM (active) | 36.6 µM (active) | – | – |
| C[C@@H]1CN([C@@H](C)CO)C(=O)c2cccc(NC(=O)c3nc4ccccc4s3)c2O[C@H]1CN(C)Cc1ccc2c(c1)OCO2 | – | – | – | – | 1.78 µM (active) | – |
| Cc1cccc(-c2noc(CN(C(=O)c3ccc(Br)o3)C(C)C)n2)c1 | – | – | – | – | – | EC50 [12]: 11.1 µM (active) |
| O=C(CCCCCN1C(=O)c2cccc3cccc(c23)C1=O)NCCO | – | – | – | – | – | IC50 [13]: > 20 µM (inactive) |
| COc1ccc(NC(=O)Nc2ccc3c(c2)C(=O)N([C@H](C)CO)C[C@H](C)[C@@H](CN(C)CC2CCCCC2)OCCCC[C@@H](C)O3)cc1 | – | – | – | – | 3.41 µM (active) | – |
| CN(c1ccccc1)c1ccc(/C=N/N2CCOCC2)cc1 | 18.8 µM (active) | 8.89 µM (active) | 27.3 µM (active) | 39.5 µM (active) | – | IC50 (Nonstructural protein 1): > 100 µM (active); IC50 [14]: 37.2 µM (active) |
| Cc1cc(NC(=O)C(C)Oc2ccc(Cl)cc2Cl)n(-c2ccccc2)n1 (configuration not stated) | – | – | – | – | – | EC50 [12]: 8.91 µM (active) |
| C[C@@H]1CN([C@H](C)CO)C(=O)Cc2cc(NS(=O)(=O)c3ccccc3)ccc2O[C@@H]1CN(C)Cc1ccc(Cl)c(Cl)c1 | – | – | – | – | 3.52 µM (active) | – |
| COc1ccc(-c2nc3ccccc3c(=O)[nH]2)cc1 | 6.83 µM (active) | 6.89 µM (active) | 17.3 µM (active) | > 100 µM (inactive) | – | – |
| CCc1ccc(-c2csc(NC(=O)C3=COCCO3)n2)cc1 | 38.6 µM (active) | 6.81 µM (active) | 27 µM (active) | 48.5 µM (active) | – | – |
| C[C@H](CO)N1C[C@H](C)[C@H](CN(C)Cc2ccc(Cl)c(Cl)c2)Oc2c(NC(=O)c3ccc(-c4nccs4)cc3)cccc2C1=O | – | – | – | – | 4.5 µM (active) | – |
| C[C@H]1CN([C@@H](C)CO)C(=O)c2cccc(NC(=O)c3ccc(-c4nccs4)cc3)c2O[C@H]1CN(C)Cc1ccc(C(=O)Nc2ccccc2N)cc1 | – | – | – | – | 1.49 µM (active) | – |
| O=C(Nc1ccccc1Cl)Nc1cccc2cccnc12 | 29.4 µM (active) | 7.41 µM (active) | > 100 µM (inactive) | 6.08 µM (active) | – | – |
